{
  "source": "patent US10047086B2",
  "about": "“Imidazopyridines and imidazopyrazines as LSD1 inhibitors” (Incyte Corporation, priority 2014, dated 2018)",
  "target": "LSD-1 enzyme (Homo sapiens (Human), UniProt O60341)",
  "test": "LANCE LSD1/KDM1A demethylase assay (LSD1 histone demethylase biochemical assay)",
  "conditions": "1 nM LSD-1 enzyme, 1 hour preincubation at 25° C., 0.4 μM Biotin-labeled Histone H3 peptide substrate",
  "data": [
    {"smiles": "CCC1CC=C(c2c(-c3ccc(C#N)cc3)cc(OC[C@@H]3CCNC3)c3cncn23)CC1", "note": "(stereo partly drawn) [Example 9, 4-{5-(4-ethylcyclohex-1-en-1-yl)-8-[(3R)-pyrrolidin-3-ylmethoxy]imidazol[1,5-a]pyridin-6-yl}benzonitrile]", "values": [
      {"measurement": "IC50", "result": "≤ 50", "unit": "nM"}
    ]},
    {"smiles": "CN1C(=O)COc2cc(-c3c(-c4ccc(C#N)cc4)nc(N4CCC(N(C)C)CC4)c4cncn34)cnc21", "note": "[Example 105, 4-[8-[4-(dimethylamino)piperidin-1-yl]-5-(4-methyl-3-oxo-3,4-dihydro-2H-pyrido[3,2-b][1,4]oxazin-7-yl)imidazo[1,5-a]pyrazin-6-yl]benzonitrile]", "values": [
      {"measurement": "IC50", "result": "≤ 50", "unit": "nM"}
    ]},
    {"smiles": "Cc1ncc(-c2c(-c3ccc(C#N)cc3)cc(OC[C@@H]3CCCN(C)C3)c3cncn23)cc1O", "note": "[Example 76, 4-(5-(5-hydroxy-6-methylpyridin-3-yl)-8-{[(3R)-1-methylpiperidin-3-yl]methoxy}imidazo[1,5-a]pyridin-6-yl)benzonitrile]", "values": [
      {"measurement": "IC50", "result": "≤ 50", "unit": "nM"}
    ]},
    {"smiles": "CN(C)C1CCN(c2nc(-c3ccc(C#N)cc3)c(-c3ccc4c(c3)CC(O)C4)n3cncc23)CC1", "note": "(racemic) [Example 136, 4-[8-[4-(dimethylamino)piperidin-1-yl]-5-(2-hydroxy-2,3-dihydro-1H-inden-5-yl)imidazo[1,5-a]pyrazin-6-yl]benzonitrile]", "values": [
      {"measurement": "IC50", "result": "≤ 50", "unit": "nM"}
    ]},
    {"smiles": "COCCN1CCC[C@@H](COc2cc(-c3ccc(C#N)cc3)c(-c3cnc4c(c3)OCCO4)n3cncc23)C1", "note": "[Example 115, (R)-4-(5-(2,3-dihydro-[1,4]dioxino[2,3-b]pyridin-7-yl)-8-((1-(2-methoxyethyl)piperidin-3-yl)methoxy)imidazo[1,5-a]pyridin-6-yl)benzonitrile]", "values": [
      {"measurement": "IC50", "result": "≤ 50", "unit": "nM"}
    ]},
    {"smiles": "Cc1cc(-c2c(-c3ccc(C#N)cc3)cc(OC[C@@H]3CCCN(C)C3)c3cncn23)cnc1C", "note": "[Example 81, 4-(5-(5,6-dimethylpyridin-3-yl)-8-{[(3R)-1-methylpiperidin-3-yl]methoxy}imidazo[1,5-a]pyridin-6-yl)benzonitrile]", "values": [
      {"measurement": "IC50", "result": "≤ 50", "unit": "nM"}
    ]},
    {"smiles": "Cc1cc(-c2c(-c3ccc(C#N)cc3)cc(OC[C@@H]3CCCN(C)C3)c3cncn23)ccc1CO", "note": "[Example 79, 4-(5-[4-(hydroxymethyl)-3-methylphenyl]-8-{[(3R)-1-methylpiperidin-3-yl]methoxy}imidazo[1,5-a]pyridin-6-yl)benzonitrile]", "values": [
      {"measurement": "IC50", "result": "≤ 50", "unit": "nM"}
    ]},
    {"smiles": "Cc1ccc(-c2c(-c3ccc(C#N)cc3F)cc(OC[C@@H]3CCNC3)c3cncn23)cc1", "note": "[Example 5, 3-fluoro-4-{5-(4-methylphenyl)-8-[(3R)-pyrrolidin-3-ylmethoxy]imidazo[1,5-a]pyridin-6-yl}benzonitrile]", "values": [
      {"measurement": "IC50", "result": "≤ 50", "unit": "nM"}
    ]},
    {"smiles": "CN1CCC[C@@H](COc2nc(-c3ccc(C#N)cc3)c(-c3ccc4c(cnn4C)c3)n3cncc23)C1", "note": "[Example 23, 4-(5-(1-methyl-1H-indazol-5-yl)-8-{[(3R)-1-methylpiperidin-3-yl]methoxy}imidazo[1,5-a]pyrazin-6-yl)benzonitrile]", "values": [
      {"measurement": "IC50", "result": "≤ 50", "unit": "nM"}
    ]},
    {"smiles": "COCCN1CCC[C@@H](COc2nc(-c3ccc(C#N)cc3)c(-c3cnc4c(cnn4C)c3)n3cncc23)C1", "note": "[Example 40, 4-[8-{[(3R)-1-(2-methoxyethyl)piperidin-3-yl]methoxy}-5-(1-methyl-1H-pyrazolo[3,4-b]pyridin-5-yl)imidazo[1,5-a]pyrazin-6-yl]benzonitrile]", "values": [
      {"measurement": "IC50", "result": "≤ 50", "unit": "nM"}
    ]},
    {"smiles": "CN1CCC[C@@H](COc2cc(-c3ccc(C#N)cc3)c(-c3cnc4c(c3)OCCN4C)n3cncc23)C1", "note": "[Example 116, (R)-4-(5-(4-methyl-3,4-dihydro-2H-pyrido[3,2-b][1,4]oxazin-7-yl)-8-((1-methylpiperidin-3-yl)methoxy)imidazo[1,5-a]pyridin-6-yl)benzonitrile]", "values": [
      {"measurement": "IC50", "result": "≤ 50", "unit": "nM"}
    ]},
    {"smiles": "CN1CCC[C@@H](COc2nc(-c3ccc(C#N)c(F)c3)c(-c3ccc4c(c3)CCC(=O)N4C)n3cncc23)C1", "note": "[Example 102, 2-fluoro-4-(5-(1-methyl-2-oxo-1,2,3,4-tetrahydroquinolin-6-yl)-8-{[(3R)-1-methylpiperidin-3-yl]methoxy}imidazo[1,5-a]pyrazin-6-yl)benzonitrile]", "values": [
      {"measurement": "IC50", "result": "≤ 50", "unit": "nM"}
    ]},
    {"smiles": "Cc1ncc(-c2c(-c3ccc(C#N)cc3)cc(OC[C@@H]3CCCN(C)C3)c3cncn23)cc1F", "note": "[Example 127, 4-(5-(5-fluoro-6-methylpyridin-3-yl)-8-{[(3R)-1-methylpiperidin-3-yl]methoxy}imidazo[1,5-a]pyridin-6-yl)benzonitrile]", "values": [
      {"measurement": "IC50", "result": "≤ 50", "unit": "nM"}
    ]},
    {"smiles": "CN1CCC[C@@H](COc2nc(-c3ccc(C#N)cc3)c(-c3cc4oc(=O)n(C)c4cc3F)n3cncc23)C1", "note": "[Example 30, 4-(5-(5-fluoro-3-methyl-2-oxo-2,3-dihydro-1,3-benzoxazol-6-yl)-8-{[(3R)-1-methylpiperidin-3-yl]methoxy}imidazo[1,5-a]pyrazin-6-yl)benzonitrile]", "values": [
      {"measurement": "IC50", "result": "≤ 50", "unit": "nM"}
    ]},
    {"smiles": "CCN1CCC[C@@H](COc2nc(-c3ccc(C#N)cc3)c(-c3cc4oc(=O)n(C)c4cc3F)n3cncc23)C1", "note": "[Example 111, 4-[8-{[(3R)-1-ethylpiperidin-3-yl]methoxy}-5-(5-fluoro-3-methyl-2-oxo-2,3-dihydro-1,3-benzoxazol-6-yl)imidazo[1,5-a]pyrazin-6-yl]benzonitrile]", "values": [
      {"measurement": "IC50", "result": "≤ 50", "unit": "nM"}
    ]},
    {"smiles": "CN1CCC[C@@H](COc2nc(-c3ccc(C#N)cc3)c(-c3ccc4scnc4c3)n3cncc23)C1", "note": "[Example 34, (R)-4-(5-(benzo[d]thiazol-5-yl)-8-((1-methylpiperidin-3-yl)methoxy)imidazo[1,5-a]pyrazin-6-yl)benzonitrile]", "values": [
      {"measurement": "IC50", "result": "≤ 50", "unit": "nM"}
    ]},
    {"smiles": "COCCN1CCC[C@@H](COc2cc(-c3ccc(C#N)cc3)c(-c3cc(C)c(CO)c(F)c3)n3cncc23)C1", "note": "[Example 129, 4-(5-[3-fluoro-4-(hydroxymethyl)-5-methylphenyl]-8-{[(3R)-1-(2-methoxyethyl)piperidin-3-yl]methoxy}imidazo[1,5-a]pyridin-6-yl)benzonitrile]", "values": [
      {"measurement": "IC50", "result": "≤ 50", "unit": "nM"}
    ]},
    {"smiles": "COc1ncc(-c2c(-c3ccc(C#N)cc3)nc(N3CCC(N(C)C)CC3)c3cncn23)cc1C", "note": "[Example 93, 4-[8-[4-(dimethylamino)piperidin-1-yl]-5-(6-methoxy-5-methylpyridin-3-yl)imidazo[1,5-a]pyrazin-6-yl]benzonitrile]", "values": [
      {"measurement": "IC50", "result": "≤ 50", "unit": "nM"}
    ]},
    {"smiles": "CN1CCC[C@@H](COc2cc(-c3ccc(C#N)cc3)c(-c3ccc4c(c3)oc(=O)n4C)n3cncc23)C1", "note": "[Example 63, (R)-4-(5-(3-methyl-2-oxo-2,3-dihydrobenzo[d]oxazol-6-yl)-8-((1-methylpiperidin-3-yl)methoxy)imidazo[1,5-a]pyridin-6-yl)benzonitrile]", "values": [
      {"measurement": "IC50", "result": "≤ 50", "unit": "nM"}
    ]},
    {"smiles": "COCCN1CCC[C@@H](COc2cc(-c3ccc(C#N)cc3)c(-c3cnc4c(c3)CCCO4)n3cncc23)C1", "note": "[Example 122, (R)-4-(5-(3,4-dihydro-2H-pyrano[2,3-b]pyridin-6-yl)-8-((1-(2-methoxyethyl)piperidin-3-yl)methoxy)imidazo[1,5-a]pyridin-6-yl)benzonitrile]", "values": [
      {"measurement": "IC50", "result": "≤ 50", "unit": "nM"}
    ]},
    {"smiles": "Cc1ncc(-c2c(-c3ccc(C#N)cc3)nc(N3CCC(N(C)C)CC3)c3cncn23)cc1CO", "note": "[Example 142, 4-{8-[4-(dimethylamino)piperidin-1-yl]-5-[5-(hydroxymethyl)-6-methylpyridin-3-yl]imidazo[1,5-a]pyrazin-6-yl}benzonitrile]", "values": [
      {"measurement": "IC50", "result": "≤ 50", "unit": "nM"}
    ]},
    {"smiles": "CN(C)C1CCN(c2nc(-c3ccc(C#N)cc3)c(-c3ccc4c(c3)oc(=O)n4C)n3cncc23)CC1", "note": "[Example 51, 4-[8-[4-(dimethylamino)piperidin-1-yl]-5-(3-methyl-2-oxo-2,3-dihydro-1,3-benzoxazol-6-yl)imidazo[1,5-a]pyrazin-6-yl]benzonitrile]", "values": [
      {"measurement": "IC50", "result": "≤ 50", "unit": "nM"}
    ]},
    {"smiles": "N#Cc1ccc(-c2cc(OC[C@@H]3CCNC3)c3cncn3c2-c2ccc(CCN3CCOCC3)cc2)cc1", "note": "[Example 18, 4-{5-[4-(2-morpholin-4-ylethyl)phenyl]-8-[(3R)-pyrrolidin-3-ylmethoxy]imidazo[1,5-a]pyridin-6-yl}benzonitrile]", "values": [
      {"measurement": "IC50", "result": "≤ 50", "unit": "nM"}
    ]},
    {"smiles": "CN1CCC[C@@H](COc2cc(-c3ccc(C#N)cc3)c(-c3cnc4c(c3)ncn4C)n3cncc23)C1", "note": "[Example 58, (R)-4-(5-(3-methyl-3H-imidazo[4,5-b]pyridin-6-yl)-8-((1-methylpiperidin-3-yl)methoxy)imidazo[1,5-a]pyridin-6-yl)benzonitrile]", "values": [
      {"measurement": "IC50", "result": "≤ 50", "unit": "nM"}
    ]}
  ]
}
